Data reported in patent US20230348376A1 (TEIJIN PHARMA LIMITED, priority 2020, published 2023).

These molecules were tested against T1, human VDR (Homo sapiens, UniProt P11473) (assay: Evaluation of VDR transcription activity in human osteoblasts (HOS cells), luciferase reporter). Conditions: Activity (EC50, VDR transcription activity), HOS cells transfected with human VDR, human RXRα and DR3 luciferase reporter; 21 hours.
T1 sequence (P11473 1-427): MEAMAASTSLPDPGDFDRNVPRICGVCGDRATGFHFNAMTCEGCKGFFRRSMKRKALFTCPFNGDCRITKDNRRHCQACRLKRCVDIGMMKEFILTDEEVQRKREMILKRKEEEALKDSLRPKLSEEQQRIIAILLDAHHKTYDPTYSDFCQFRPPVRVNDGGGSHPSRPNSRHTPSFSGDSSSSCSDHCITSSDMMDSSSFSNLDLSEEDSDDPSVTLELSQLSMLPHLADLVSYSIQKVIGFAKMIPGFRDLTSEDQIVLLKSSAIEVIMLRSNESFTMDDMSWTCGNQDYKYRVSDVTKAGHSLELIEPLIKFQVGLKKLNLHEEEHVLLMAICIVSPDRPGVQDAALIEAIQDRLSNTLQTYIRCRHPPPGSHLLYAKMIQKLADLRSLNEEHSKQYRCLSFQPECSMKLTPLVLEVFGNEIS
T1 sequence (P19793 1-462 partner): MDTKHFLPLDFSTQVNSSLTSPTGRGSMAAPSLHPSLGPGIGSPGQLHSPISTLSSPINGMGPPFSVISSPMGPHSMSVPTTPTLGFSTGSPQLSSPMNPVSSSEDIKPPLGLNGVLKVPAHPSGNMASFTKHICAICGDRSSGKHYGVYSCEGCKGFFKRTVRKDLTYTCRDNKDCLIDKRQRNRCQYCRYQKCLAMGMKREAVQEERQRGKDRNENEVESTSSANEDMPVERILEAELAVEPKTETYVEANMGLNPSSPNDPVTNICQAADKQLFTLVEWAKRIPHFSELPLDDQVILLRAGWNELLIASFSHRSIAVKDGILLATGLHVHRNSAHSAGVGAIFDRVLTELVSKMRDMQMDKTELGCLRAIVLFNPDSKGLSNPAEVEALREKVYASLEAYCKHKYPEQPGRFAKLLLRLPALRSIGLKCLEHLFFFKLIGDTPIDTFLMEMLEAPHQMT

Question: `C[C@H](CCN1CC[C@H](C(C)(F)F)C1)[C@H]1CC[C@H]2/C(=C/C=C3C[C@@H](O)C[C@H](O)C3)CCC[C@]12C` [Compound B083, (1R,3R)-5-(2-((1R,3aS,7aR,E)-1-((R)-4-((S)-3-(1,1-difluoroethyl)pyrrolidin-1-yl)butan-2-yl)-7a-methyloctahydro-4H-inden-4-ylidene)ethylidene)cyclohexane-1,3-diol] was tested. Which EC50 did it give?
Answer: 10 to 100 nM

Question: How did the EC50 turn out when `C[C@H](CCCN1CC[C@H](C(F)F)C1)[C@H]1CC[C@H]2/C(=C/C=C3C[C@@H](O)C[C@H](O)C3)CCC[C@]12C` [Compound B084, (1R,3R)-5-(2-((1R,3aS,7aR,E)-1-((R)-5-((S)-3-(difluoromethyl)pyrrolidin-1-yl)pentan-2-yl)-7a-methyloctahydro-4H-inden-4-ylidene)ethylidene)cyclohexane-1,3-diol] was run?
Answer: 10 to 100 nM

Question: Which EC50 does the source give for `C[C@H](CCCN1CC[C@@H](C(F)F)C1)[C@H]1CC[C@H]2/C(=C/C=C3C[C@@H](O)C[C@H](O)C3)CCC[C@]12C` [Compound B085, (1R,3R)-5-(2-((1R,3aS,7aR,E)-1-((R)-5-((R)-3-(difluoromethyl)pyrrolidin-1-yl)pentan-2-yl)-7a-methyloctahydro-4H-inden-4-ylidene)ethylidene)cyclohexane-1,3-diol] here?
Answer: 10 to 100 nM

Question: How did the EC50 turn out when `C[C@H](CCN1CC[C@@H](OC(F)F)C1)[C@H]1CC[C@H]2/C(=C/C=C3C[C@@H](O)C[C@H](O)C3)CCC[C@]12C` [Compound B087, (1R,3R)-5-(2-((1R,3aS,7aR,E)-1-((R)-4-((R)-3-(difluoromethoxy)pyrrolidin-1-yl)butan-2-yl)-7a-methyloctahydro-4H-inden-4-ylidene)ethylidene)cyclohexane-1,3-diol] was run?
Answer: 100 to 1000 nM

Question: How did the EC50 turn out when `C=C1[C@H](O)CC(=C/C=C2\CCC[C@]3(C)[C@@H]([C@H](C)CCN4CC[C@H](C(F)F)C4)CC[C@@H]23)C[C@H]1O` [Compound B088, (1R,3R)-5-(2-((1R,3aS,7aR,E)-1-((R)-4-((S)-3-(difluoromethyl)pyrrolidin-1-yl)butan-2-yl)-7a-methyloctahydro-4H-inden-4-ylidene)ethylidene)-2-methylenecyclohexane-1,3-diol] was run?
Answer: 1 to 10 nM

Question: `C=C1[C@H](O)CC(=C/C=C2\CCC[C@]3(C)[C@@H]([C@H](C)CCN4CC[C@H](CC(F)F)C4)CC[C@@H]23)C[C@H]1O` [Compound B090, (1R,3R)-5-(2-((1R,3aS,7aR,E)-1-((R)-4-((R)-3-(2,2-difluoroethyl)pyrrolidin-1-yl)butan-2-yl)-7a-methyloctahydro-4H-inden-4-ylidene)ethylidene)-2-methylenecyclohexane-1,3-diol] was tested. Which EC50 did it give?
Answer: 1 to 10 nM

Question: For `C=C1[C@H](O)CC(=C/C=C2\CCC[C@]3(C)[C@@H]([C@H](C)CCN4CC[C@H](C(C)(F)F)C4)CC[C@@H]23)C[C@H]1O` [Compound B091, (1R,3R)-5-(2-((1R,3aS,7aR,E)-1-((R)-4-((S)-3-(1,1-difluoroethyl)pyrrolidin-1-yl)butan-2-yl)-7a-methyloctahydro-4H-inden-4-ylidene)ethylidene)-2-methylenecyclohexane-1,3-diol], which EC50 is on record?
Answer: 1 to 10 nM

Question: For `C=C1[C@H](O)CC(=C/C=C2\CCC[C@]3(C)[C@@H]([C@H](C)CCN4CC[C@@H](CC(F)F)C4)CC[C@@H]23)C[C@H]1O` [Compound B092, (1R,3R)-5-(2-((1R,3aS,7aR,E)-1-((R)-4-((S)-3-(2,2-difluoroethyl)pyrrolidin-1-yl)butan-2-yl)-7a-methyloctahydro-4H-inden-4-ylidene)ethylidene)-2-methylenecyclohexane-1,3-diol], which EC50 is on record?
Answer: 10 to 100 nM

Question: For `C=C1[C@H](O)CC(=C/C=C2\CCC[C@]3(C)[C@@H]([C@H](C)CCN4CC[C@@H](C(C)(F)F)C4)CC[C@@H]23)C[C@H]1O` [Compound B093, (1R,3R)-5-(2-((1R,3aS,7aR,E)-1-((R)-4-((R)-3-(1,1-difluoroethyl)pyrrolidin-1-yl)butan-2-yl)-7a-methyloctahydro-4H-inden-4-ylidene)ethylidene)-2-methylenecyclohexane-1,3-diol], which EC50 is on record?
Answer: 1 to 10 nM

Question: For `C=C1[C@H](O)CC(=C/C=C2\CCC[C@]3(C)[C@@H]([C@H](C)CCN4CC[C@@H](CCC(F)F)C4)CC[C@@H]23)C[C@H]1O` [Compound B094, (1R,3R)-5-(2-((1R,3aS,7aR,E)-1-((R)-4-((R)-3-(3,3-difluoropropyl)pyrrolidin-1-yl)butan-2-yl)-7a-methyloctahydro-4H-inden-4-ylidene)ethylidene)-2-methylenecyclohexane-1,3-diol], which EC50 is on record?
Answer: 10 to 100 nM

Question: How did the EC50 turn out when `C=C1/C(=C\C=C2/CCC[C@]3(C)[C@@H]([C@@H](C)CN4CC[C@H](C(F)F)C4)CC[C@@H]23)C[C@@H](O)C[C@@H]1O` [Compound B095, (1R,3S,Z)-5-(2-((1R,3aS,7aR,E)-1-((R)-1-((S)-3-(difluoromethyl)pyrrolidin-1-yl)propan-2-yl)-7a-methyloctahydro-4H-inden-4-ylidene)ethylidene)-4-methylenecyclohexane-1,3-diol] was run?
Answer: 100 to 1000 nM

Question: For `C=C1/C(=C\C=C2/CCC[C@]3(C)[C@@H]([C@@H](C)CN4CC[C@@H](C(F)F)C4)CC[C@@H]23)C[C@@H](O)C[C@@H]1O` [Compound B096, (1R,3S,Z)-5-(2-((1R,3aS,7aR,E)-1-((R)-1-((R)-3-(difluoromethyl)pyrrolidin-1-yl)propan-2-yl)-7a-methyloctahydro-4H-inden-4-ylidene)ethylidene)-4-methylenecyclohexane-1,3-diol], which EC50 is on record?
Answer: 1 to 10 nM

Question: With `C=C1/C(=C\C=C2/CCC[C@]3(C)[C@@H]([C@H](C)CN4CCC(O)(C(F)(F)F)CC4)CC[C@@H]23)C[C@@H](O)C[C@@H]1O` [Compound C001, (1R,3S,Z)-5-(2-((1R,3aS,7aR,E)-1-((S)-1-(4-hydroxy-4-(trifluoromethyl)piperidin-1-yl)propan-2-yl)-7a-methyloctahydro-4H-inden-4-ylidene)ethylidene)-4-methylenecyclohexane-1,3-diol] as the molecule, how does the EC50 read?
Answer: 1 to 10 nM

Question: With `C=C1/C(=C\C=C2/CCC[C@]3(C)[C@@H]([C@H](C)CN4CCC(O)(C(F)(F)F)CC4)CC[C@@H]23)C[C@@H](O)[C@H](C)[C@@H]1O` [Compound C003, (1R,2S,3S,Z)-5-(2-((1R,3aS,7aR,E)-1-((S)-1-(4-hydroxy-4-(trifluoromethyl)piperidin-1-yl)propan-2-yl)-7a-methyloctahydro-4H-inden-4-ylidene)ethylidene)-2-methyl-4-methylenecyclohexane-1,3-diol] as the molecule, how does the EC50 read?
Answer: 10 to 100 nM

Question: `C=C1[C@H](O)CC(=C/C=C2\CCC[C@]3(C)[C@@H]([C@H](C)CN4CCC(O)(C(F)(F)F)CC4)CC[C@@H]23)C[C@H]1O` [Compound C004, (1R,3R)-5-(2-((1R,3aS,7aR,E)-1-((S)-1-(4-hydroxy-4-(trifluoromethyl)piperidin-1-yl)propan-2-yl)-7a-methyloctahydro-4H-inden-4-ylidene)ethylidene)-2-methylenecyclohexane-1,3-diol] was tested. Which EC50 did it give?
Answer: 10 to 100 nM

Question: Which EC50 does the source give for `C=C1[C@H](O)CC(=C/C=C2\CCC[C@]3(C)[C@@H]([C@H](C)CN4CCC(C(F)(F)F)CC4)CC[C@@H]23)C[C@H]1O` [Compound C009, (1R,3R)-5-(2-((1R,3aS,7aR,E)-7a-methyl-1-((S)-1-(4-(trifluoromethyl)piperidin-1-yl)propan-2-yl)octahydro-4H-inden-4-ylidene)ethylidene)-2-methylenecyclohexane-1,3-diol] here?
Answer: 10 to 100 nM

Question: `C=C1/C(=C\C=C2/CCC[C@]3(C)[C@@H]([C@H](C)CN4CCC(C(F)(F)F)CC4)CC[C@@H]23)C[C@@H](O)[C@H](C)[C@@H]1O` [Compound C010, (1R,2S,3S,Z)-2-methyl-5-(2-((1R,3aS,7aR,E)-7a-methyl-1-((S)-1-(4-(trifluoromethyl)piperidin-1-yl)propan-2-yl)octahydro-4H-inden-4-ylidene)ethylidene)-4-methylenecyclohexane-1,3-diol] was tested. Which EC50 did it give?
Answer: 10 to 100 nM

Question: `C=C1/C(=C\C=C2/CCC[C@]3(C)[C@@H]([C@@H](C)CN4CCC(C(F)(F)F)CC4)CC[C@@H]23)C[C@@H](O)C[C@@H]1O` [Compound C011, (1R,3S,Z)-5-(2-((1R,3aS,7aR,E)-7a-methyl-1-((R)-1-(4-(trifluoromethyl)piperidin-1-yl)propan-2-yl)octahydro-4H-inden-4-ylidene)ethylidene)-4-methylenecyclohexane-1,3-diol] was tested. Which EC50 did it give?
Answer: 1 to 10 nM

Question: With `C=C1/C(=C\C=C2/CCC[C@]3(C)[C@@H]([C@@H](C)CN4CCC(C(F)(F)F)CC4)CC[C@@H]23)C[C@@H](O)[C@H](C)[C@@H]1O` [Compound C012, (1R,2S,3S,Z)-2-methyl-5-(2-((1R,3aS,7aR,E)-7a-methyl-1-((R)-1-(4-(trifluoromethyl)piperidin-1-yl)propan-2-yl)octahydro-4H-inden-4-ylidene)ethylidene)-4-methylenecyclohexane-1,3-diol] as the molecule, how does the EC50 read?
Answer: 1 to 10 nM

Question: `C=C1[C@H](O)CC(=C/C=C2\CCC[C@]3(C)[C@@H]([C@H](C)CN4CCC(C(F)F)CC4)CC[C@@H]23)C[C@H]1O` [Compound C015] was tested. Which EC50 did it give?
Answer: 10 to 100 nM
